According to US20090317842A1, “Methods and Tools for The Therapy of Neurodegenerative Pathologies” (EXONHIT THERAPEUTICS SA, priority 2006, published 2009):

What was measured:
sAPPalpha [1] = test: sAPPalpha production in HEK293 cells over-expressing human APP (ELISA and Western blot); format: cell-based; conditions: HEK293 cells stably over-expressing human APP; variable concentrations; 24 hours; FIG. 5
Method: HEK293 cells transfected in a stable manner over-expressing human APP were kept in Modified Eagle medium containing Earle salt and supplemented by 10% fetal calf serum (FCS), 2 mM L-glutamine (Sigma, Lyon, France), 1× Nonessential Amino Acids and antibiotics. The cells were treated for 48 hours after spreading variable concentrations of the molecules indicated on 10-cm plates, or with DMSO as a carrier, for 24 hours. The sAPPalpha had been measured by ELISA and Western blot by means of commercially available antibodies.

sAPPalpha [2] = test: sAPPalpha production by cortical neurons (Western blot); format: cell-based, Wistar rat; conditions: 0.2 and 2 μM for 24 h; Western blot densitometry; versus non-treated cultures; FIG. 6
Method: The production of sAPPalpha was measured in cortical neurons isolated from 17-day-old Wistar rat embryos. The cells are obtained from cortical structures that are dissected into a solution containing 0.25% trypsin. The dissociated cells are seeded at a density of 500,000 per cm^2 in a Neurobasal medium containing additives (1×B27, 2 mM L-glutamine, 0.6% glucose, antibiotics and antimycotics, as well as 2% horse serum) in culture dishes coated with 6 μg/mL, of polyornithine. The cells are kept at 37° C. and 5% CO2. 24 hours after seeding, the cells are treated with 5 μM AraC (5 cytosine arabinofuranoside) as an antimitotic agent. After 4 days in vitro, half the medium is exchanged for medium without horse serum and the culture is kept for maturation in this medium for 7 to 10 days. The sAPPalpha was measured by Western blot by means of antibodies available commercially after one change of medium and accumulation in fresh medium for 24 hours. Quantification was done by densitometric analyses of scanned autoradiographic images. […] The results presented are the mean±SEM of three independent experiments performed in duplicate and are expressed the form of percentage of the control (non-treated cultures).

sAPPalpha [3] = test: sAPPalpha production in vivo in guinea pig brain (ELISA); conditions: 10 mg/kg per os once a day for 15 days; guinea pig cortices; versus excipient; p<1E-4; FIG. 7
Method: The production of sAPPalpha was studied in vivo in the guinea pig, a physiological model for APP processing in the brain. The etazolate or the excipient (physiological saline solution) was administered to male Hartley albino guinea pigs, weighing 250-270 g at the beginning of the experiment, once a day for 15 consecutive days, per os in a dose of 10 mg/kg. One h after the last administration, the guinea pigs were sacrificed and the brains immediately extracted, frozen in nitrogen and stored at −80° C. The cortices were homogenized at 4° C. in a pH 7.5 20 mM Tris base solution containing 0.2% Triton X-100, 50 μg/mL, gentamicin and a protease inhibitor cocktail. The soluble sAPPalpha was measured by an ELISA test and the results normalized with regard to the quantity of proteins present in the extracts.

cortical neurons = test: Neuroprotection against Aβ25-35 amyloid peptide toxicity in neuronal cultures (MTT test); format: cell-based, Wistar rat; conditions: Aβ25-35 33.5 μM
Method: Aβ25-35 peptide contains the neurotoxic fragment of the amyloid peptide and is a tool classically used to study the neuroprotective effects of compounds. At the beginning of each experiment, the neuronal cultures aged 7-10 days are changed with fresh culture medium and treated with the etazolate inhibitor compound, six hours before the addition of Aβ25-35 amyloid peptide at a concentration of 33.5 μM In a classical and reproducible manner, this concentration generates 30% to 40% toxicity in neuronal cultures. Several experiments are undertaken to characterize the neuroprotective effect of etazolate. […] In order to determine whether it is the inhibition of sAPPalpha or its production that provides the neuroprotective effect of etazolate against amyloid peptide, a neutralizing anti-sAPPα antibody (3E9 antibody) and alpha secretase inhibitors are respectively used. For the neutralization of sAPPα, 3E9 antibody (5 μg/ml) is added to the cortical cells at the same time as the etazolate. Two alpha secretase inhibitors, the compound Furin Inhibitor […], Sohn J H, Lee […], Mook-Jung I. Furin is an endogenous regulator of alpha-secretase associated APP processing. Biochem Biophys Res Commun. 2006 Oct. 20; 349(2):654-9.) and TAPI (Slack […]. […] Biochem J. 2001 Aug. 1; 357(Pt 3):787-94) are used in pretreatment one hour before the addition of the etazolate. All the treatments are effected at least twice and in at least two different cultures. After an incubation of 48 hours, the toxicity is measured by an MTT test. The results, normalized to the untreated mean, are statistically analyzed by the Wilcoxon test. The significant value is determined at p less than or equal to 0.05. The toxicity is measured by using the MTT test. After incubation with the compounds, MTT is added at a final concentration of 0.5 mg/mL by wells. The plates are then incubated for 30 minutes at 37° C. at night. The medium is drawn off and the crystals are resuspended in 500 μL of DMSO (dimethylsulfoxide). The absorbance at 550 nm is read and the viability percentage is calculated.

CCOC(=O)c1cnc2c(cnn2CC)c1NN=C(C)C [etazolate]
sAPPalpha secretion (sAPPalpha [1]): induces sAPPalpha secretion
salting out of sAPPalpha from cortical neurons (sAPPalpha [2]): stimulates the salting out of sAPPalpha
quantity of sAPPalpha measured in the brains (sAPPalpha [3]): increase by a factor of three
cellular viability (cortical neurons; 0.2 μM etazolate, 48 hours, FIG. 8): 90%
protector effect on neuronal death induced by Aβ25-35 (cortical neurons; co-treatment of neurons, 48 hours, FIG. 8): dose-dependent protector effect

TAPI [reference compound]
effect on the neuroprotection induced by etazolate (cortical neurons; agent added before or with etazolate, cortical neurons, FIGS. 8-10): inhibited
